The record followed here is US10851110B2, “Heterocyclic inhibitors of PTPN11” (priority 2016, dated 2020).

The test system of the data set is BT474 human breast carcinomas cell line. Description: In Vivo Tumor Models: BT474 xenograft. Particulars: BT474 (HER2+) xenograft in CB-17/SCID mice, 100 mg/kg once per day oral gavage, 5 days on/2 days off, 4 weeks. The text has this:
Xenografts were initiated with BT474 human breast carcinomas cell line and maintained by serial subcutaneous transplantation in CB-17/SCID mice (Charles River). On the day of tumor implant, each test mouse received a 1 mm^3 BT474 fragment implanted subcutaneously in the right flank, and tumor growth was monitored as the average size approached the target range of 100 to 150 mm3. About three weeks post-implantation, the animals were randomized and grouped based on tumor volume and mouse body weight. […] Tumors were measured in two dimensions using calipers, and volume was calculated using the formula: Tumor Volume (mm^3)=w^2×l/2.

Consider `CC1(N)CCN(c2cnc3c(-c4cccc(Cl)c4Cl)n[nH]c3n2)CC1` [Example 1, 1-(3-(2,3-dichlorophenyl)-1H-pyrazolo[3,4-b]pyrazin-6-yl)-4-methylpiperidin-4-amine], for which the “tolerability (body weight)” value is reported as “tolerated dose” and the tumor growth entry is listed as “significant suppression of tumor growth”.
